The subject of test [1] is P. falciparum 3D7. Further details: method as in ChEMBL-NTD. Particulars: ref ChEMBL-NTD, cited from earlier work.
For test [2], the system named is P. falciparum 3D7. Kind of test: DAPI stain fluorescent high content imaging assay, P. falciparum 3D7 (confirmatory screen, Avery). The note with it: Plasmodium falciparum; for EC50: 3D7, read-out: EC50_nM; for inhibition of growth at 5 µM: 3D7, read-out: percent_inh @ 5 uM; for inhibition of growth at 2 µM: 3D7, read-out: percent_inh @ 2 uM.
The mark [3] stands for this setting: original screening data, source (GSK, GNF, StJude), several values separated by ';' in order of sources.
Setting [4] is: values follow the order of the source (GNF; GSK; StJude).

Where two headings read alike, the source gives them in different places.

For 19 compounds, EC50, inhibition of growth and inhibition results are on record in article PMC3684613 (PLoS ONE, 2013).

For `C=CCc1c(C)nc2ccccc2c1O` [MMV006913], the EC50 in the test on P. falciparum 3D7 [1] (setting [3]) is 707 nM. In addition, in the test on P. falciparum 3D7 [2], the EC50 is 1290 nM and the inhibition of growth at 5 µM came to 85%.
As for `Cc1ccc(-c2cc3nc4c(c(O)n3n2)CCCC4)cc1` [MMV006937], the EC50 in the test on P. falciparum 3D7 [1] (source GNF (GNF-Pf id)) was 1600 nM. Besides, in the test on P. falciparum 3D7 [2], the EC50 is 396 nM and the inhibition of growth at 5 µM is 73%.
With `O=C(Nc1ccc(-c2nc3cc(NC(=O)c4ccc(Cl)cc4)ccc3[nH]2)cc1)c1ccc(Cl)cc1` [MMV006962], the EC50 with P. falciparum 3D7 [1] (setting [4]) is 993 nM. Moreover, the inhibition at 1.25 µM in the test with P. falciparum 3D7 [2] (3D7, read-out: % inh. At 1.25 uM) is 48%.
With `CCOc1ccc2nc(C)cc(Nc3ccc(N(C)C)cc3)c2c1` [MMV007020], the EC50 in the test on P. falciparum 3D7 [1] (setting [4]) was 344 nM; in the test with P. falciparum 3D7 [2] it was 4000 nM. In addition, the inhibition of growth at 2 µM in the test with P. falciparum 3D7 [2] was determined as 94%.
Consider `Cc1ccc2c(C)nc(Nc3nc(C)cc(-c4ccccc4)n3)nc2c1` [MMV007041], for which the EC50 with P. falciparum 3D7 [1] (setting [4]) was 975 nM. In addition, in the test on P. falciparum 3D7 [2], the EC50 was 4000 nM and the inhibition of growth at 2 µM was 73%.
Regarding `CCOc1ccc(CN2CCN(CC(O)COc3ccc(OCC(O)CN4CCN(Cc5ccc(OCC)cc5)CC4)cc3)CC2)cc1` (stereo not shown) [MMV007092], the EC50 in the test with P. falciparum 3D7 [1] (setting [4]) was 1370 nM. Moreover, in the test on P. falciparum 3D7 [2], the EC50 turned out to be 1200 nM and the inhibition of growth at 5 µM worked out at 97%.
As for `c1ccc(C2=Nc3ccccc3N=C(c3ccccc3)c3ccccc32)cc1` [MMV007113], the EC50 with P. falciparum 3D7 [1] (setting [4]) was 678 nM. Moreover, in the test on P. falciparum 3D7 [2], the EC50 stood at 662 nM and the inhibition of growth at 5 µM was found to be 99%.
Turning to `CCOC(=O)c1cnc2ccc(CC)cc2c1O` [MMV007116], the EC50 is 716 nM in the test with P. falciparum 3D7 [1] (source GNF (GNF-Pf id)) and 351 nM in the test on P. falciparum 3D7 [2].
In the case of `OC1=C2C(=Nc3ccccc3SC2c2ccc(Br)cc2)c2ccccc21` (stereo not shown) [MMV007127], in the test with P. falciparum 3D7 [1] (source GNF (GNF-Pf ids)), the EC50 was 337 nM. Also, in the test with P. falciparum 3D7 [2], the EC50 was found to be 567 nM and the inhibition of growth at 5 µM worked out at 97%.
As to `Cc1ccc(N2C3c4ccccc4N(S(=O)(=O)c4ccc(C)cc4)C2c2ccccc2N3S(=O)(=O)c2ccc(C)cc2)cc1` [MMV007160], in the test on P. falciparum 3D7 [1] (source GNF (GNF-Pf id)), the EC50 was 720 nM. Also, in the test on P. falciparum 3D7 [2], the EC50 is 24.8 nM and the inhibition of growth at 5 µM worked out at 97%.
Turning to `Cc1cc(Nc2ccc(OCc3ccccc3)cc2)nc2cc(O)ccc12` [MMV007181], the EC50 in the test with P. falciparum 3D7 [1] (setting [4]) was 73.6 nM. For the same compound, in the test with P. falciparum 3D7 [2], the EC50 was 684 nM and the inhibition of growth at 5 µM turned out to be 96%.
On to `COc1ccc(OC)c(C2C3=C(CC(C)(C)CC3=O)N(c3ccc(Cl)c(Cl)c3)C3=C2C(=O)CC(C)(C)C3)c1` [MMV007208], for which the EC50 with P. falciparum 3D7 [1] (source GNF (GNF-Pf ids)) is 430 nM; in the test on P. falciparum 3D7 [2], 912 nM. In the test with P. falciparum 3D7 [2], the inhibition of growth at 5 µM amounted to 90%.
Consider `Cc1cccc(N2C(=O)C3C(C2=O)C2(c4ccccc4)C(=O)C3(c3ccccc3)C(c3ccc4c(c3)OCO4)=C2c2ccc3c(c2)OCO3)c1` (stereo not shown) [MMV007228], for which the EC50 was 1070 nM in the test on P. falciparum 3D7 [1] (setting [4]) and 304 nM with P. falciparum 3D7 [2]. Besides, the inhibition of growth at 5 µM with P. falciparum 3D7 [2] worked out at 94%.
With `COc1cc(-c2nc(-c3ccc(Sc4ccccc4)cc3)c(-c3ccccc3)[nH]2)cc(OC)c1O` [MMV007273], the EC50 in the test on P. falciparum 3D7 [1] (source GNF (GNF-Pf ids)) is 1280 nM. In addition, in the test with P. falciparum 3D7 [2], the EC50 stood at 350 nM and the inhibition of growth at 5 µM is 97%.
With `Cc1ccc(F)cc1NC(=O)c1cc(Cl)ccc1Nc1ccccc1` [MMV007275], the figures for the EC50 in the test on P. falciparum 3D7 [1] (source GNF (GNF-Pf ids)) and in the test with P. falciparum 3D7 [2] were 191 nM and 539 nM, respectively. Moreover, in the test on P. falciparum 3D7 [2], the inhibition of growth at 5 µM turned out to be 99%.
As for `CCOc1ccc(Nc2ccnc3cc(Cl)ccc23)cc1` [MMV007285], in the test on P. falciparum 3D7 [1] (setting [4]), the EC50 was 956 nM. Besides, in the test on P. falciparum 3D7 [2], the EC50 came to 4000 nM and the inhibition of growth at 2 µM stood at 94%.
Consider `Clc1ccc2c(N3CCCC3)ccnc2c1` [MMV007363], for which the EC50 is 283 nM in the test on P. falciparum 3D7 [1] (setting [3]) and 944 nM with P. falciparum 3D7 [2]. The inhibition of growth at 5 µM in the test on P. falciparum 3D7 [2] came out at 97%.
Turning to `CCc1ccc(Nc2cc(C)nc3nc(C)nn23)cc1` [MMV007374], in the test with P. falciparum 3D7 [1] (setting [3]), the EC50 is 574 nM. Also, in the test with P. falciparum 3D7 [2], the EC50 was determined as 4000 nM and the inhibition of growth at 2 µM was found to be 81%.
For `COc1ccc(-c2nc3cc(Cc4ccc5[nH]c(-c6ccc(OC)cc6)nc5c4)ccc3[nH]2)cc1` [MMV007384], the EC50 in the test on P. falciparum 3D7 [1] (source GNF (GNF-Pf id)) is 234 nM. Further, in the test on P. falciparum 3D7 [2], the EC50 came to 176 nM and the inhibition of growth at 5 µM was 98%.
